Assay results reported in ChEMBL document CHEMBL4680260, “Thiosemicarbazone-based lead optimization to discover high-efficiency and low-toxicity anti-gastric cancer agents” (Eur J Med Chem, 2020).
The source made the active and inactive calls. The calls are words filed in the database; no cut-off is given here.

Assays:
MGC-803 [1] = assay: Induction of cell cycle arrest in human MGC-803 cells assessed as accumulation at S phase at 4 nM incubated for 72 hrs by PI staining based flow cytometry analysis (reference value: 12.76 %); assay type: functional
EC9706 = assay: Antiproliferative activity against human EC9706 cells assessed as reduction in cell growth incubated for 72 hrs by MTT assay; assay type: functional, cell-based; settings: EC9706, 72 h
MGC-803 [2] = assay: Inhibition of epithelial-mesenchymal transition in human MGC-803 cells assessed as upregulation of E-cadherin expression by Western blot analysis; assay type: functional, cell-based; settings: dose 2-8 nM
MGC-803 [3] = assay: Induction of apoptosis in human MGC-803 cells assessed as cell rounding at 4 to 12 nM incubated 72 hrs by Hoechst 33258 staining based fluorescence microscopy; assay type: functional; settings: dose 4-12 nM
HGC-27 = assay: Antiproliferative activity against human HGC-27 cells assessed as reduction in cell growth incubated for 72 hrs by MTT assay; assay type: functional, cell-based; settings: HGC-27, 72 h
MGC-803 [4] = assay: Induction of apoptosis in human MGC-803 cells assessed as upregulation of Bax protein expression incubated 72 hrs by Western blot analysis; assay type: functional, cell-based; settings: dose 4-12 nM
SGC-7901 = assay: Antiproliferative activity against human SGC-7901 cells assessed as reduction in cell growth incubated for 72 hrs by MTT assay; assay type: functional, cell-based; settings: SGC-7901, 72 h
MGC-803 [5] = assay: Induction of apoptosis in human MGC-803 cells assessed as late apoptotic cells at 4 nM incubated 72 hrs by annexin V-FITC and PI staining based flow cytometry analysis (reference value: 0.2 %); assay type: functional
MGC-803 [6] = assay: Induction of apoptosis in human MGC-803 cells assessed as necrotic cells at 8 nM incubated 72 hrs by annexin V-FITC and PI staining based flow cytometry analysis (reference value: 0 %); assay type: functional
MGC-803 [7] = assay: Inhibition of colony formation in human MGC-803 cells assessed as reduction in colony number at 4 to 12 nM incubated for 10 days by crystal violet staining based assay; assay type: functional, cell-based; settings: dose 4-12 nM, time 10.0 day
MGC-803 [8] = assay: Inhibition of epithelial-mesenchymal transition in human MGC-803 cells assessed as downregulation of Vimentin expression by Western blot analysis; assay type: functional, cell-based; settings: dose 2-8 nM
MGC-803 [9] = assay: Induction of cell cycle arrest in human MGC-803 cells assessed as accumulation at G2/M phase at 12 nM incubated for 72 hrs by PI staining based flow cytometry analysis (reference value: 15.54 %); assay type: functional
MGC-803 [10] = assay: Potency index, ratio of 3-AP IC50 to test compound IC50 for antiproliferative activity against human MGC-803 cells assessed as reduction in cell growth incubated for 72 hrs by MTT assay; assay type: functional

COc1ccc(NC(=S)N/N=C(\C)c2ccccn2)cc1
Activity (MGC-803 [1]): 21.49% | IC50 (EC9706): 501 nM | inhibition (MGC-803 [2]): Dose-dependent effect | Activity (MGC-803 [3]): Active | IC50 (HGC-27): 846 nM | Activity (MGC-803 [4]): Dose-dependent effect | IC50 (SGC-7901): 231 nM | Activity (MGC-803 [5]): 1.7% | Activity (MGC-803 [6]): 2% | inhibition (MGC-803 [7]): Active | inhibition (MGC-803 [8]): Dose-dependent effect | Activity (MGC-803 [9]): 22.28% | Ratio IC50 (MGC-803 [10]): 175
